Measured values: paper PMC6105598, “Targeting protein-protein interactions for therapeutic discovery via FRET-based high-throughput screening in living cells” (Scientific Reports, 2018)
pEC50: −log10 of the molar value. Several values for one entry are separate records, joined by “and”; a condition that tells them apart may be missing. Identical values can stand only once. Like-named read-outs stand apart in the source and are kept apart here.

Legend:
[1] = molecular target: SERCA2a-PLB complex (GFP-SERCA2a / RFP-PLB in HEK293 cells) (Homo sapiens, UniProt P16615+P26678, C36A/C41F/C46A); test: SERCA2a-PLB TR-FRET (fluorescence lifetime) biosensor assay in living cells; format: cell-based; set-up: expressed in transfected cells; host or cells: HEK293; conditions: for ΔFLT: compound incubation for 20 min, uncertainty (1 S.D.) 11 ps; for direction of FRET change of the SERCA2a-PLB biosensor: concentration-response 0.01-100 µM
[2] = molecular target: T1, cardiac SR (SERCA2a + PLB) (Sus scrofa, UniProt P11607); test: Ca-ATPase activity of cardiac SR (CSR), NADH-linked enzyme-coupled assay; format: biochemical, pig; conditions: for Vmax @ 30 µM / ΔVmax @ 30 µM: 30 µM compound; for ΔVmax @ 30 µM: relative to DMSO control
T1 construct: Cardiac SR membrane vesicles were isolated from ventricular myocardium obtained from fresh pig hearts; from tissue; host or cells: pig ventricular myocardium, SR membrane vesicles
Procedure: To characterize the relationship between the structural readout (FRET) and the functional effects, in vitro Ca-ATPase assays were performed on cardiac SR (which contains both SERCA2a and PLB). […] To further examine the functional effects of Hit compounds, Ca-ATPase assays were performed on both skeletal SR (SERCA1a only) and cardiac SR (SERCA2a + PLB) at a series of Ca concentrations ranging from pCa 5 to 8.
(§1) Skeletal muscle SR membrane vesicles were isolated from longissimus dorsi obtained from New Zealand white rabbits, as previously described. Cardiac SR membrane vesicles were isolated from ventricular myocardium obtained from fresh pig hearts. All experimental protocols were reviewed and approved by University of Minnesota’s Institutional Animal Care and Use Committee, an Association for Assessment and Accreditation of Laboratory Animal Care institution.
(§2) An enzyme-coupled, NADH-linked ATPase assay was used to measure SERCA ATPase activity in 96-well microplates. Each well contained 0.8 μg (skeletal) or 2 μg (cardiac) of SR vesicles adjusted for the different SERCA contents of skeletal and cardiac SR, 50 mM MOPS (pH 7.0), 100 mM KCl, 5 mM MgCl2, 1 mM EGTA, 0.2 mM NADH, 1 mM phosphoenol pyruvate, 10 IU/mL of pyruvate kinase, 10 IU/mL of lactate dehydrogenase, 3.5 μg/mL of the Ca ionophore A23187, and CaCl2 added to set free [Ca] to the desired values. The assay was started upon the addition of ATP at a final concentration of 5 mM and read in a SpectraMax Plus microplate spectrophotometer rom Molecular Devices (Sunnyvale, CA).

[3] = molecular target: T2, skeletal SR (SERCA1a only) (Oryctolagus cuniculus, UniProt P04191); test: Ca-ATPase activity of skeletal SR (SSR), NADH-linked enzyme-coupled assay; format: biochemical, rabbit; conditions: for Vmax @ 30 µM / percent change in Vmax vs DMSO control at 30 µM / pEC50 / ΔVmax @ 30 µM: SSR; for Vmax @ 30 µM / percent change in Vmax vs DMSO control at 30 µM / ΔVmax @ 30 µM: 30 µM compound; for percent change in Vmax vs DMSO control at 30 µM / ΔVmax @ 30 µM: relative to DMSO control; for percent change in Vmax vs DMSO control at 30 µM: read-out: ΔVmax @ 30 µM
T2 construct: Skeletal muscle SR membrane vesicles were isolated from longissimus dorsi obtained from New Zealand white rabbits; from tissue; host or cells: rabbit longissimus dorsi skeletal muscle, SR membrane vesicles
Procedure: To further examine the functional effects of Hit compounds, Ca-ATPase assays were performed on both skeletal SR (SERCA1a only) and cardiac SR (SERCA2a + PLB) at a series of Ca concentrations ranging from pCa 5 to 8.
as §1, §2

[4] = molecular target: GFP-SERCA2a (eGFP fused to the N-terminus of human cardiac sarcoplasmic reticulum Ca-ATPase SERCA2a) (human) (UniProt P16615); test: FRET or BRET; time-resolved FRET (donor fluorescence lifetime) in saponin-permeabilized HEK293 cells, high Ca (10 µM); also tested with 100 nM thapsigargin, which prevents the Ca-dependent decrease in FRET
[5] = molecular target: GFP-SERCA2a (eGFP fused to the N-terminus of human cardiac sarcoplasmic reticulum Ca-ATPase SERCA2a) (human) (UniProt P16615); test: FRET or BRET; time-resolved FRET (donor fluorescence lifetime) in saponin-permeabilized HEK293 cells, low Ca (100 nM); also tested with 100 nM thapsigargin
[6] = molecular target: GFP-SERCA2a (eGFP fused to the N-terminus of human cardiac sarcoplasmic reticulum Ca-ATPase SERCA2a) (human) (UniProt P16615); test: FRET or BRET; time-resolved FRET (donor fluorescence lifetime, plate reader) in live HEK293 cells co-expressing GFP-SERCA2a (donor) and increasing amounts of RFP-PLB (acceptor); value at saturating acceptor
[7] = concentration-response 0.01-100 µM compound, live HEK293 cells

T2 sequence (P04191 1-994 isoform P04191-2): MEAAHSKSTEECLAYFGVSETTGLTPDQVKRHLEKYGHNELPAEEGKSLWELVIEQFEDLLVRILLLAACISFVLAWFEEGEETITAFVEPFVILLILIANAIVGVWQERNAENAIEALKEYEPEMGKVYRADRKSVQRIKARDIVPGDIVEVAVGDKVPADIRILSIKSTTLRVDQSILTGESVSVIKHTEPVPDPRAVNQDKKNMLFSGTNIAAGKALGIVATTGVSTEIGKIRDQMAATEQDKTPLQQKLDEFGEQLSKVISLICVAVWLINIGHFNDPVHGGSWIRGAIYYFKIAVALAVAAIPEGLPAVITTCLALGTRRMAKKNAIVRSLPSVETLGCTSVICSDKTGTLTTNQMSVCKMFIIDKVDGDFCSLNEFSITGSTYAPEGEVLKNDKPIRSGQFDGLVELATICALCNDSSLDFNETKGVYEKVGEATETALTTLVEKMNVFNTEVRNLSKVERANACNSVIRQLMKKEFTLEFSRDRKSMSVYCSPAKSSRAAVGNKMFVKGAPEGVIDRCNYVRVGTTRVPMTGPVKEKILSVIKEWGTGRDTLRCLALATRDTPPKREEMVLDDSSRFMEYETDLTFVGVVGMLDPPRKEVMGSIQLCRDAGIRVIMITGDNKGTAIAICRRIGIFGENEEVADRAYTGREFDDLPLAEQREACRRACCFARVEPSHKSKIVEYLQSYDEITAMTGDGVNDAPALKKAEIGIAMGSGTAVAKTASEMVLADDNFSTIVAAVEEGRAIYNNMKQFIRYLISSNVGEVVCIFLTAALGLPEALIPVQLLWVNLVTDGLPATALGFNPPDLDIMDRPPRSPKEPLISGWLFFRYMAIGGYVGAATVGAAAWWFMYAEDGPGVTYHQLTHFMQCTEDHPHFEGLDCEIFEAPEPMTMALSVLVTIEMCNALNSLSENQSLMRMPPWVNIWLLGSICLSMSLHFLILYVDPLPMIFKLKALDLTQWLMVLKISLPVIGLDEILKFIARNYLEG
Sequence of RFP-PLB (tagRFP fused to the N-terminus of a monomeric mutant of human phospholamban) (P26678 whole entry C36A/C46A, change not shown, the tested form may be a part): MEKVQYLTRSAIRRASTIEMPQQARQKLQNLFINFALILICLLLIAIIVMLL
Sequence of SERCA2a-PLB complex (GFP-SERCA2a / RFP-PLB in HEK293 cells) (P16615 1-997 isoform P16615-2, stated change not applied): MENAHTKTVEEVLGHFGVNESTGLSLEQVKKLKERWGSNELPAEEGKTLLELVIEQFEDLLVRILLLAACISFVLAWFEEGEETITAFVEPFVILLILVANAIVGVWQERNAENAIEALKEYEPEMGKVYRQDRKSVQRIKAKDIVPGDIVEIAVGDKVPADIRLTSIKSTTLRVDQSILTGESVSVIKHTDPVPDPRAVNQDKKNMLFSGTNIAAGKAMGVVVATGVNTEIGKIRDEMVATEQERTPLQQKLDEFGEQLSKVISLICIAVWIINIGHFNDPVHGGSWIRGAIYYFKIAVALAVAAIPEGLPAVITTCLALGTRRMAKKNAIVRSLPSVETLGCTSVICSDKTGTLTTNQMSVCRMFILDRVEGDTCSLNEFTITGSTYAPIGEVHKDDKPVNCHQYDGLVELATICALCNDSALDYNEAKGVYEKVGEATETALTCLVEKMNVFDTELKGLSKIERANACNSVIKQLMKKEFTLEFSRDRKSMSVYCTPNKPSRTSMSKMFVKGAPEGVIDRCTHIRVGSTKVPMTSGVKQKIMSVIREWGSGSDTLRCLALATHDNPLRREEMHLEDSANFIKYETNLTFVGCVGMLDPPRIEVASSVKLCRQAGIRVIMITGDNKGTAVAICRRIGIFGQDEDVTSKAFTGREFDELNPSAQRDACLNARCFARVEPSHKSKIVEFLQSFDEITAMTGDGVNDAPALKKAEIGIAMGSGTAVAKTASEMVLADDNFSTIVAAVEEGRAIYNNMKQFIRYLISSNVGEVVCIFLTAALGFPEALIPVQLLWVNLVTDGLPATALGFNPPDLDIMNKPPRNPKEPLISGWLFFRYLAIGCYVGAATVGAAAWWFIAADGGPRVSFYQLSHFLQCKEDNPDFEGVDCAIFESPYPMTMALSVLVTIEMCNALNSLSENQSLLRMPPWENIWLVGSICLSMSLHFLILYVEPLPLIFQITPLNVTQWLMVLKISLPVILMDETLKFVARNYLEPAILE
Sequence of SERCA2a-PLB complex (GFP-SERCA2a / RFP-PLB in HEK293 cells) (P26678 whole entry C36A/C41F/C46A): as the sequence (P26678 whole entry C36A/C46A, change not shown, the tested form may be a part) above, with C41F counted along it
Sequence of GFP-SERCA2a (eGFP fused to the N-terminus of human cardiac sarcoplasmic reticulum Ca-ATPase SERCA2a) (human) (P16615 other isoform, or with tags, fused parts or gaps): as the sequence (P16615 1-997 isoform P16615-2, stated change not applied) above
T1 sequence (P11607 1-997 isoform P11607-2): as the sequence (P16615 1-997 isoform P16615-2, stated change not applied) above, with R371K, N403K, S538P, L570M, H576N, D667E, A713S, S865T, I889V, V963L counted along it
T1 sequence (P61013 whole entry partner): as the sequence (P26678 whole entry C36A/C46A, change not shown, the tested form may be a part) above, with E2D, K27N, A36C, A46C counted along it

| Molecule | ΔFLT ([1]; final concentration 10 µM) [ps] | ΔFLT ([1]; final concentration 100 µM) [ps] | Vmax @ 30 µM ([2]; CSR) [i.u.] | ΔVmax @ 30 µM ([2]; CSR) [%] | Vmax @ 30 µM [3] [i.u.] | percent change in Vmax vs DMSO control at 30 µM [3] [%] | pEC50 [1, 7] | pEC50 ([2]; CSR, read-out: EC50 Vmax) | pEC50 [3] | ΔVmax @ 30 µM [3] [%] | other results |
| --- | --- | --- | --- | --- | --- | --- | --- | --- | --- | --- | --- |
| NC(=O)N1C(=O)/C(=C(\O)c2cccs2)c2cc(Cl)ccc21 [Tenidap] | 8 | -68 | 0.66 | -1.7 | 2.66 | 1.8 |  |  |  |  | pEC50 [1]: < 4.00 |
| CN=c1nc(-c2ccccc2)n(-c2ccccc2)s1 [SCH 202676] | 36 | 35 | 0.22 | -68.2 | 0.07 |  | 5.74 | 5.85 | 6.05 | -97.3 | direction of FRET change of the SERCA2a-PLB biosensor [1]: decrease in FRET; decrease of Vmax ([2]; cardiac SR): 68%; decrease of Vmax ([3]; skeletal SR): 97% |
| CN1CCC[C@@H]1Cc1c[nH]c2ccc(Nc3ncccc3[N+](=O)[O-])cc12 [CP-135807] | -70 | -390 | 0.65 | -3.8 | 2.67 |  | < 4.00 |  |  | 2.1 |  |
| CNC(=O)c1cc2c(cn1)[nH]c1ccccc12 [FG7142] | 4 | 10 | 0.67 | -0.7 | 2.63 |  |  |  |  | 0.5 |  |
| Oc1ccc(/C=C/c2ccc(/C=C/c3ccc(O)cc3)c(Br)c2)cc1 [K114] | -16 | -102 | 0.11 | -83.7 | 0.32 |  | 4.38 | 5.17 | 5.45 | -87.9 |  |
| CCOc1nc2cccc(C(=O)OC(C)OC(=O)OC3CCCCC3)c2n1Cc1ccc(-c2ccccc2-c2nnn[nH]2)cc1 (stereo not shown) [Candesartan cilexetil] | 70 | 181 | 0.17 | -75.3 | 0.41 | -84.5 | 4.70 | 4.93 | 5.13 |  |  |
| CC1=C(/C=C/C(C)=C/C=C/C(C)=C/C(=O)O)C(C)(C)CCC1 [Retinoic Acid] | 27 | -31 | 0.42 | -37.8 | 2.34 | -10.6 | 4.18 | 4.95 |  |  |  |
| C=C(C)[C@H]1Cc2c(ccc3c2O[C@@H]2COc4cc(OC)c(OC)cc4[C@@H]2C3=O)O1 [Rotenone] |  |  | 0.53 | -22.0 | 2.64 | 0.7 |  |  |  |  |  |
| CC(C)(C)c1ccc(/C=C/C(=O)Nc2ccc3c(c2)OCCO3)cc1 [AMG9810] | 6 | -1 | 0.68 | 0.1 | 2.62 |  |  |  |  | 0.1 |  |
| CCc1ccc(/C=C2/SC(=S)NC2=O)cc1 [10058-F4] | 17 | -11 | 0.63 | -7.5 | 2.63 |  |  |  |  | 0.5 |  |
| CCCCCCCCCCCCCCCC(=O)OC(CC(=O)O)C[N+](C)(C)C.[Cl-] (racemic) [Palmitoyl-DL-carnitine chloride] | 50 | 189 | 0.22 | -67.1 | 0.57 |  | 4.60 | 4.79 | 4.91 | -78.1 |  |
| Clc1ccc(C(c2ccc(Cl)cc2)n2cc[n+](CC(OCc3ccc(Cl)cc3Cl)c3ccc(Cl)cc3Cl)c2)cc1 (stereo not shown) [Calmidazolium] | 45 | -192 | 0.08 | -88.7 | 0.01 | -99.5 | 4.58 | 4.80 | 5.13 |  |  |
| O=C(c1cc(O)c(O)c([N+](=O)[O-])c1)c1ccccc1F [Ro 41-0960] | -26 | -152 | 0.53 | -20.9 | 1.44 |  | 4.65 |  | 5.01 | -45.1 | direction of FRET change of the SERCA2a-PLB biosensor [1]: increase in FRET; pEC50 ([2]; cardiac SR (SERCA2a + PLB), read-out: EC50 of the increase in Ca affinity (pKCa)): 4.64; increase of Ca-ATPase activity at pCa 6.4 ([2]; cardiac SR, pCa 6.4, 24 µM compound): 44%; Ca affinity (pKCa) in cardiac SR with compound ([2]; increased from 6.05 (control), concentration-dependent, up to 64 µM): 6.45; effect on Ca affinity in skeletal SR ([3]; even at the highest compound concentrations): no effect |
| O=C(Nc1cccnc1)N1CCC(Cc2cccc(Oc3ccc(C(F)(F)F)cn3)c2)CC1 [PF3845] | 30 | 38 | 0.48 | -28.3 | 2.61 | -0.2 |  |  |  |  | pEC50 [1]: 5.49 |
| Brc1c(Br)c(Br)c2n[nH]nc2c1Br [TBB] | 31 | 63 | 0.49 | -27.2 | 2.66 |  | 4.14 |  |  | 1.6 |  |
| Cc1[nH]c(=O)c(C#N)cc1-c1ccc2nccn2c1 [Olprinone] | 36 | 254 | 0.68 | -0.1 | 2.70 | 3 | < 4.00 |  |  |  |  |
| RFP-PLB (tagRFP fused to the N-terminus of a monomeric mutant of human phospholamban) (from UniProt P26678 1-52) (natural protein) |  |  |  |  |  |  |  |  |  |  | FRET efficiency E [4]: 0.11; FRET efficiency E [5]: 0.14; maximum FRET efficiency E [6]: 0.103 |
| CCCCN(CC)c1nc(C)nc2c1c(C)cn2-c1c(C)cc(C)cc1C [CP 154526] | 48 | 185 | 0.91 | 34.4 | 3.40 | 35 | 5.03 | 6.00 | 5.60 and 5.61 |  | direction of FRET change of the SERCA2a-PLB biosensor [1]: decrease in FRET; increase of Vmax ([2]; cardiac SR): 34%; increase of Vmax ([3]; skeletal SR): 35% |
| COC(=O)c1c(C)[nH]c(C)c1C(=O)c1ccccc1Cc1ccccc1 [FPL 64176] | 19 | 47 | 0.52 | -23.0 | 2.64 |  | < 4.00 |  |  | 0.7 |  |
